Test results taken from PubChem BioAssay AID212 (DTP/NCI, 2004).
Values joined by “and” are separate entries in the source; they are usually repeats but may differ in a detail not shown here. Identical values can stand only once. Inconclusive results are not listed.

System: BDF1 mice, colon carcinoma 38 sc, T/C %
Test: NCI In Vivo Anticancer Drug Screen. Data for tumor model Colon Carcinoma 38 (subcutaneous) in B6D2F1 (BDF1) mice
Conditions: endpoint: median tumor weight (est.), higher = larger tumour
Outline: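 Ratio of survival or tumor size, compound-treated animals relative to vehicle controls, in tumor-bearing mice.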

[1] = dose: 12.5 mg/kg/injection, schedule: Q07DX002 (ip), vehicle: Klucel (hydroxypropylcellulose) (HPC)
[2] = dose: 25.0 mg/kg/injection, schedule: Q07DX002 (ip), vehicle: Klucel (hydroxypropylcellulose) (HPC)
[3] = dose: 25.0 mg/kg/injection, schedule: Q07DX002 (ip), vehicle: saline with Tween-80
[4] = dose: 50.0 mg/kg/injection, schedule: Q07DX002 (ip), vehicle: Klucel (hydroxypropylcellulose) (HPC)
[5] = dose: 100.0 mg/kg/injection, schedule: Q07DX002 (ip), vehicle: Klucel (hydroxypropylcellulose) (HPC)
[6] = dose: 200.0 mg/kg/injection, schedule: Q07DX002 (ip), vehicle: Klucel (hydroxypropylcellulose) (HPC)
[7] = dose: 400.0 mg/kg/injection, schedule: Q07DX002 (ip), vehicle: Klucel (hydroxypropylcellulose) (HPC)
[8] = dose: 12.5 mg/kg/injection, schedule: Q07DX002 (ip), vehicle: saline with Tween-80
[9] = dose: 100.0 mg/kg/injection, schedule: Q07DX002 (ip), vehicle: saline with Tween-80
[10] = dose: 200.0 mg/kg/injection, schedule: Q07DX002 (ip), vehicle: saline with Tween-80
[11] = dose: 400.0 mg/kg/injection, schedule: Q07DX002 (ip), vehicle: saline with Tween-80
[12] = dose: 12.5 mg/kg/injection, schedule: Q07DX002 (ip), vehicle: distilled water + Tween-80
[13] = dose: 25.0 mg/kg/injection, schedule: Q07DX002 (ip), vehicle: distilled water + Tween-80

For `CCC1CC2CN(CCc3c([nH]c4ccccc34)C(C(=O)OC)(c3cc4c(cc3OC)N(C)C3C(O)(C(=O)OC)C(OC(C)=O)C5(CC)C=CCN6CCC43C65)C2)C1` (centres undefined), the T/C (dose: 0.25 mg/kg/injection, schedule: Q07DX002 (ip), vehicle: suspension in saline) was 162 % of control, the T/C (dose: 0.5 mg/kg/injection, schedule: Q07DX002 (ip), vehicle: suspension in saline) was 158 % of control and the T/C (dose: 1.0 mg/kg/injection, schedule: Q07DX002 (ip), vehicle: suspension in saline) was 167 % of control.
In the case of `N=C(N)c1ccc(/C=C/c2ccc(C(=N)N)cc2)cc1`, the T/C [1] is reported as 73 % of control, the T/C [2] is reported as 114 % of control and the T/C (dose: 36.0 mg/kg/injection, schedule: Q07DX002 (ip), vehicle: saline with Tween-80) is reported as 67 % of control.
`C=C(C)C(=O)OC1C/C(CO)=C\C(O)C/C(C)=C/C2OC(=O)C(=C)C21` (centres undefined) was tested, and the T/C (dose: 2.5 mg/kg/injection, schedule: Q07DX002 (ip), vehicle: saline + alcohol) was 105 % of control, the T/C (dose: 5.0 mg/kg/injection, schedule: Q07DX002 (ip), vehicle: saline + alcohol) was 117 % of control and the T/C (dose: 20.0 mg/kg/injection, schedule: Q07DX002 (ip), vehicle: saline + alcohol) was 120 % of control. For the same compound, the T/C (dose: 40.0 mg/kg/injection, schedule: Q07DX002 (ip), vehicle: saline + alcohol) was 119 % of control.
`CC(=O)C(=O)O.CC(=O)C(=O)O.[NH-]C1CCCCC1[NH-].[Pt+2]` (centres undefined) was tested, and the T/C (dose: 25.0 mg/kg/injection, schedule: Q07DX002 (ip), vehicle: dextrose) was 96 % of control and the T/C (dose: 50.0 mg/kg/injection, schedule: Q07DX002 (ip), vehicle: dextrose) was 44 % of control.
With `CS(=O)(=O)CS(=O)(=O)OCCCl` the T/C (dose: 1.5 mg/kg/injection, schedule: Q07DX002 (ip), vehicle: saline) was 86 % of control, the T/C (dose: 3.0 mg/kg/injection, schedule: Q07DX002 (ip), vehicle: saline) was 91 % of control and the T/C (dose: 6.0 mg/kg/injection, schedule: Q07DX002 (ip), vehicle: saline) was 97 % of control. The T/C (dose: 12.0 mg/kg/injection, schedule: Q07DX002 (ip), vehicle: saline) was 155 % of control and the T/C [3] was 73 % of control.
With `N=C(N)SCc1cccc2c(=O)cc(-c3ccccc3)oc12` the T/C (dose: 800.0 mg/kg/injection, schedule: Q07DX002 (ip), vehicle: saline) was 52 % of control and 69 % of control.
In the case of `COc1nc(=O)n(C2C=CC(=O)O2)cc1F` (centres undefined), the T/C (dose: 12.5 mg/kg/injection, schedule: Q07DX002 (ip), vehicle: saline) is reported as 117 % of control, the T/C (dose: 25.0 mg/kg/injection, schedule: Q07DX002 (ip), vehicle: saline) is reported as 113 % of control and the T/C (dose: 50.0 mg/kg/injection, schedule: Q07DX002 (ip), vehicle: saline) is reported as 109 % of control.
`Oc1c(Cl)cc(C(c2cc(Cl)c(O)c(Cl)c2)C(c2cc(Cl)c(O)c(Cl)c2)c2cc(Cl)c(O)c(Cl)c2)cc1Cl` was tested, and the T/C [1] was 115 % of control and 99 % of control, the T/C [2] was 123 % of control and the T/C [4] was 96 % of control. For the same compound, the T/C [5] was 95 % of control and 104 % of control, the T/C [6] was 63 % of control and 86 % of control and the T/C [7] was 57 % of control and 82 % of control.
For `COC1/C=C/O[C@@]2(C)Oc3c(C)c(O)c4c(O)c(cc(O)c4c3C2=O)NC(=O)/C(C)=C\C=C\[C@H](C)C(O)[C@@H](C)[C@@H](O)[C@@H](C)[C@H](OC(C)=O)[C@@H]1C` (some centres undefined), the T/C [8] was 72 % of control, the T/C (dose: 50.0 mg/kg/injection, schedule: Q07DX002 (ip), vehicle: saline with Tween-80) was 79 % of control and the T/C [9] was 84 % of control. The T/C [10] was 77 % of control and the T/C [11] was 98 % of control.
With `O=c1nc(Oc2ccccc2)nc2ncccn12` the T/C [8] was 82 % of control, the T/C [3] was 94 % of control and the T/C [9] was 74 % of control.
In the case of `NNC(=S)N/N=C/c1ccccn1`, the T/C (dose: 3.12 mg/kg/injection, schedule: Q07DX002 (ip), vehicle: suspension in saline) is reported as 84 % of control, the T/C (dose: 6.25 mg/kg/injection, schedule: Q07DX002 (ip), vehicle: suspension in saline) is reported as 49 % of control and the T/C (dose: 12.5 mg/kg/injection, schedule: Q07DX002 (ip), vehicle: suspension in saline) is reported as 77 % of control. For the same compound, the T/C (dose: 25.0 mg/kg/injection, schedule: Q07DX002 (ip), vehicle: suspension in saline) was 75 % of control and the T/C (dose: 50.0 mg/kg/injection, schedule: Q07DX002 (ip), vehicle: suspension in saline) was 64 % of control.
For `O=NN(CCCl)C(=O)Oc1cc(Cl)c(Cl)cc1Cl`, the T/C [2] was 117 % of control and the T/C [4] was 63 % of control.
For `CC(C)CC(=O)NC(C(=O)NC(C(=O)NC(CC(C)C)C(O)CC(=O)NC(C)C(=O)NC(CC(C)C)C(O)CC(=O)O)C(C)C)C(C)C` (centres undefined), the T/C [2] was 79 % of control, the T/C [4] was 109 % of control and the T/C [5] was 95 % of control. The T/C [6] was 120 % of control.
With `Cc1cc2nc3[nH]c4ccccc4c3nc2cc1C` the T/C [1] was 164 % of control, the T/C [4] was 199 % of control and the T/C [5] was 172 % of control. For the same compound, the T/C [6] was 220 % of control and the T/C [7] was 223 % of control.
For `Cc1cc(=NO)cc(C)n1O`, the T/C (dose: 50.0 mg/kg/injection, schedule: Q07DX002 (ip), vehicle: distilled water + alcohol) was 80 % of control, the T/C (dose: 100.0 mg/kg/injection, schedule: Q07DX002 (ip), vehicle: distilled water + alcohol) was 80 % of control and the T/C (dose: 200.0 mg/kg/injection, schedule: Q07DX002 (ip), vehicle: distilled water + alcohol) was 98 % of control. For the same compound, the T/C (dose: 400.0 mg/kg/injection, schedule: Q07DX002 (ip), vehicle: distilled water + alcohol) was 106 % of control and the T/C (dose: 800.0 mg/kg/injection, schedule: Q07DX002 (ip), vehicle: distilled water + alcohol) was 86 % of control.
In the case of `OCC1(CO)COC2(CCCCC2)N1`, the T/C (dose: 100.0 mg/kg/injection, schedule: Q07DX002 (ip), vehicle: saline) is reported as 118 % of control and 102 % of control and the T/C (dose: 400.0 mg/kg/injection, schedule: Q07DX002 (ip), vehicle: saline) is reported as 112 % of control and 122 % of control.
For `OCCOCC(F)(F)F`, the T/C [3] was 86 % of control, the T/C [10] was 120 % of control and 104 % of control and the T/C [11] was 116 % of control and 102 % of control.
For `NC(=S)Nc1cccc2ccccc12`, the T/C (dose: 6.25 mg/kg/injection, schedule: Q07DX002 (ip), vehicle: saline with Tween-80) was 164 % of control, the T/C [8] was 151 % of control and the T/C [3] was 162 % of control.
For `CC(=O)OCc1cc(=O)n(C)c2c3c4c(cc12)c(C)cc(=O)n4CO3`, the T/C (dose: 12.5 mg/kg/injection, schedule: Q07DX003 (ip), vehicle: Klucel (hydroxypropylcellulose) (HPC)) was 121 % of control and 106 % of control, the T/C (dose: 25.0 mg/kg/injection, schedule: Q07DX003 (ip), vehicle: Klucel (hydroxypropylcellulose) (HPC)) was 108 % of control and the T/C (dose: 50.0 mg/kg/injection, schedule: Q07DX003 (ip), vehicle: Klucel (hydroxypropylcellulose) (HPC)) was 83 % of control. For the same compound, the T/C (dose: 200.0 mg/kg/injection, schedule: Q07DX003 (ip), vehicle: Klucel (hydroxypropylcellulose) (HPC)) was 94 % of control.
With `CCCCCC[Se][Se]CCCCCC` the T/C (dose: 3.12 mg/kg/injection, schedule: Q07DX002 (ip), vehicle: Klucel (hydroxypropylcellulose) (HPC)) was 100 % of control and the T/C [2] was 95 % of control.
In the case of `COC(=O)C(N)CCCCNc1ccc2c(cc1=O)C(NC(C)=O)CCc1cc(OC)c(OC)c(OC)c1-2` (centres undefined), the T/C (dose: 287.0 mg/kg/injection, schedule: Q07DX002 (ip), vehicle: saline) is reported as 78 % of control.
For `Cc1cc(NCCCCCCCNc2cc(C)nc3cc(N)ccc23)c2ccc(N)cc2n1`, the T/C (dose: 1.56 mg/kg/injection, schedule: Q07DX002 (ip), vehicle: saline with Tween-80) was 78 % of control.
`ClC(Cl)(Cl)C1=NCc2nnn(Cc3ccccc3)c2N1` was tested, and the T/C [12] was 116 % of control, the T/C [13] was 80 % of control and the T/C [3] was 97 % of control. For the same compound, the T/C [9] was 102 % of control, the T/C (dose: 200.0 mg/kg/injection, schedule: Q07DX002 (ip), vehicle: distilled water + Tween-80) was 80 % of control and the T/C [11] was 155 % of control.
For `BrC1CC(Br)c2c1c1c(c3c2C(Br)CC3Br)C(Br)CC1Br` (centres undefined), the T/C [8] was 157 % of control, the T/C [3] was 94 % of control and 103 % of control and the T/C [10] was 80 % of control and 86 % of control. The T/C [11] was 81 % of control and 105 % of control.
In the case of `COc1ccc2c(c1)CCn1c(C)c(COC(=O)NC(C)C)c(COC(=O)NC(C)C)c1-2`, the T/C (dose: 6.25 mg/kg/injection, schedule: Q07DX002 (ip), vehicle: distilled water + Tween-80) is reported as 76 % of control, the T/C [12] is reported as 102 % of control and the T/C [13] is reported as 97 % of control. For the same compound, the T/C (dose: 50.0 mg/kg/injection, schedule: Q07DX002 (ip), vehicle: distilled water + Tween-80) was 65 % of control and the T/C (dose: 100.0 mg/kg/injection, schedule: Q07DX002 (ip), vehicle: distilled water + Tween-80) was 48 % of control.
With `CCN(CC)CC(C)(C)C(=O)/C=C/c1ccccc1` the T/C (dose: 62.5 mg/kg/injection, schedule: Q07DX002 (ip), vehicle: saline) was 102 % of control and the T/C (dose: 125.0 mg/kg/injection, schedule: Q07DX002 (ip), vehicle: saline) was 52 % of control.
